From US8883801B2, “Substituted pyrazolo[1,5-a]pyrimidines as mTOR inhibitors” (Merck Sharp & Dohme Corp., priority 2010, dated 2014)
Read-outs that look alike come from different tables or passages of the source.

Assays:
human mTOR enzyme = human mTOR enzyme (Homo sapiens, UniProt P42345); assay: HTRF mTOR enzyme (kinase) assay; assay type: biochemical; settings: rated class; 5 μM ATP, 0.2 μM GST-S6K; read-out: hMTOR IC50
[1] = test system: mTORC2 activity: phosphorylated AKT Ser473 (pAKT S473) in PC3 cells; assay: mTOR target engagement assay, immunofluorescent cell-based, mTORC2 readout; settings: rated class, 90 min treatment
Method in brief: (§1)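 Read-out is immunofluorescence intensity, normalized to DMSO-only wells and fitted to a sigmoidal Hill equation for IC50. The mTORC1 arm probes phospho-4E-BP1 Thr37/46 and the mTORC2 arm phospho-AKT Ser473.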

[2] = test system: mTORC1 activity: phosphorylated 4E-BP1 Thr37/46 (p4E-BP1 Thr37/46) in PC3 cells; assay: mTOR target engagement assay, immunofluorescent cell-based, mTORC1 readout; settings: rated class, 90 min treatment, read-out: P4EBP1 IC50
Method in brief: as §1

Sequence of human mTOR enzyme (P42345 1360-2549 limits assumed): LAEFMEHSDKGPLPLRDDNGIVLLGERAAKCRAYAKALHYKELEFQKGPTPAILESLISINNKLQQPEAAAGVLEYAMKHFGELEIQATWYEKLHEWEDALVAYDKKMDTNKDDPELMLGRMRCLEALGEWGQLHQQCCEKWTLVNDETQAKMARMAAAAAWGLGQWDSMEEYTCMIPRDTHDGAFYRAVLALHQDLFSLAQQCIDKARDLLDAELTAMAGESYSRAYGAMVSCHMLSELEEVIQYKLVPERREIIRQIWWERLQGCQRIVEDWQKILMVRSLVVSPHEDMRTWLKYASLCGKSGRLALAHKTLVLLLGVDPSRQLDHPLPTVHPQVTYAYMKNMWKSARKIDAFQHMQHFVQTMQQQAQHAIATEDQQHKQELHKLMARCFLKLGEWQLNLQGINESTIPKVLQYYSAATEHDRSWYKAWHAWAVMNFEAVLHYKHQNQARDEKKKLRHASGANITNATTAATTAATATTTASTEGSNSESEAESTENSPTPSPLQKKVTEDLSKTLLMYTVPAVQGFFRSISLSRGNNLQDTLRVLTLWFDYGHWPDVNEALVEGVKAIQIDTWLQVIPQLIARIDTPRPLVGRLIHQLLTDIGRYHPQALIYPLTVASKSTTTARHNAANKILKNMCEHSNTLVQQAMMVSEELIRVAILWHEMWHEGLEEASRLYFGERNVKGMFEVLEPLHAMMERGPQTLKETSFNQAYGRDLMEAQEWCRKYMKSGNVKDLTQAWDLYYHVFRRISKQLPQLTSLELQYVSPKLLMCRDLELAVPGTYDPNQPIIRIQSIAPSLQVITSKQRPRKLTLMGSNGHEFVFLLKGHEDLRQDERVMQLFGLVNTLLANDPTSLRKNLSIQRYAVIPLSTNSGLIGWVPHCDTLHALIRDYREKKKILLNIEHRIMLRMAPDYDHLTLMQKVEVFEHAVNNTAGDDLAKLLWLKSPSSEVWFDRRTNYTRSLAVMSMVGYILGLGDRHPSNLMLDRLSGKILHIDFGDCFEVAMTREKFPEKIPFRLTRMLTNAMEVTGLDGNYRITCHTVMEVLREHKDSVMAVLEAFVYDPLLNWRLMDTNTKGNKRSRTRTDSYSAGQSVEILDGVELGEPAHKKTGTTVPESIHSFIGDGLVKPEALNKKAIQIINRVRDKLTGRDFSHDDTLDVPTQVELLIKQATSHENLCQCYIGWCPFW

| IC50 (human mTOR enzyme) [nM] | IC50 ([1]; Homo sapiens, PC-3, 1.5 h) [nM] | IC50 ([2]; Homo sapiens, PC-3, 1.5 h) [nM] | IC50 [1] [nM] | IC50 [2] [nM] | Structure (SMILES) |
| --- | --- | --- | --- | --- | --- |
| 1 to 100 | 1 to 100 | 1 to 100 |  |  | COCCO[C@]1(C(=O)NOC)CC[C@@H](c2nc3c(-c4cnn(-c5ccccc5)c4)cnn3c(N)c2S(C)(=O)=O)CC1 [Compound 89, (1R,4R)-4-(7-amino-6-(methylsulfonyl)-3-(1-phenyl-1H-pyrazol-4-yl)pyrazolo[1,5-a]pyrimidin-5-yl)-N-methoxy-1-(2-methoxyethoxy)-cyclohexane-carboxamide] |
| 1 to 100 | 1 to 100 | 100 to 1000 |  |  | CS(=O)(=O)c1c(C2CCC(O)(CO)CC2)nc2c(-c3cnn(-c4ccccc4)c3)cnn2c1N (stereo not drawn) [Compound 166, 4-(7-amino-6-(methylsulfonyl)-3-(1-phenyl-1H-pyrazol-4-yl)pyrazolo[1,5-a]pyrimidin-5-yl)-1-(hydroxymethyl)cyclohexanol] |
| 1 to 100 | 5000 to 15000 | 5000 to 15000 |  |  | COCCO[C@]1(C(=O)O)CC[C@@H](c2nc3c(-c4cnc(-c5ccccc5)nc4)cnn3c(N)c2S(C)(=O)=O)CC1 [Compound 46, (1R,4R)-4-(7-amino-6-(methylsulfonyl)-3-(2-phenylpyrimidin-5-yl)pyrazolo[1,5-a]pyrimidin-5-yl)-1-(2-methoxyethoxy) cyclohexanecarboxylic acid] |
| 1 to 100 | 1 to 100 | 100 to 1000 |  |  | COCCO[C@]1(c2nnc(N)o2)CC[C@@H](c2nc3c(-c4cnn(-c5ccccc5)c4)cnn3c(N)c2S(C)(=O)=O)CC1 [Compound 108, 5-((1R,4R)-4-(7-amino-6-(methylsulfonyl)-3-(1-phenyl-1H-pyrazol-4-yl)pyrazolo[1,5-a]pyrimidin-5-yl)-1-(2-methoxyethoxy)cyclohexyl)-1,3,4-oxadiazol-2-amine] |
| 1 to 100 | 100 to 1000 | 100 to 1000 |  |  | COCCO[C@]1(c2noc(=O)[nH]2)CC[C@@H](c2nc3c(-c4cnn(-c5ccccc5)c4)cnn3c(N)c2S(C)(=O)=O)CC1 [Compound 121, 3-((1R,4R)-4-(7-amino-6-(methylsulfonyl)-3-(1-phenyl-1H-pyrazol-4-yl)pyrazolo[1,5-a]pyrimidin-5-yl)-1-(2-methoxyethoxy)cyclohexyl)-1,2,4-oxadiazol-5(4H)-one] |
| 1 to 100 | 100 to 1000 | 1000 to 2000 |  |  | COCCO[C@]1(C(=O)NN2CCOCC2)CC[C@@H](c2nc3c(-c4cnn(-c5ccccc5)c4)cnn3c(N)c2S(C)(=O)=O)CC1 [Compound 96, (1R,4R)-4-(7-amino-6-(methylsulfonyl)-3-(1-phenyl-1H-pyrazol-4-yl)pyrazolo[1,5-a]pyrimidin-5-yl)-1-(2-methoxyethoxy)-N-morpholinocyclohexane-carboxamide] |
| 1 to 100 | 100 to 1000 | 1000 to 2000 |  |  | COCCNC(=O)[C@]1(OCCOC)CC[C@H](c2nc3c(-c4cnn(-c5ccccc5)c4)cnn3c(N)c2S(C)(=O)=O)CC1 [Compound 93, (1R,4R)-4-(7-amino-6-(methylsulfonyl)-3-(1-phenyl-1H-pyrazol-4-yl)pyrazolo[1,5-a]pyrimidin-5-yl)-1-(2-methoxyethoxy)-N-(2-methoxyethyl)-cyclohexane-carboxamide] |
| 1 to 100 | 100 to 1000 | 100 to 1000 |  |  | CC(=O)c1c(C2CCC(O)(CO)CC2)nc2c(-c3ccc(-c4cscn4)nc3)cnn2c1N (single isomer, unassigned) [Compound 144, 1-(7-amino-5-(4-hydroxy-4-(hydroxymethyl)-cyclohexyl)-3-(6-(thiazol-4-yl)pyridin-3-yl)pyrazolo[1,5-a]pyrimidin-6-yl)ethanone] |
| 1 to 100 | 100 to 1000 | 100 to 1000 |  |  | CC(=O)c1c(C2CCC(CO)(C(=O)O)CC2)nc2c(-c3ccc(-c4ccccc4)nc3)cnn2c1N (stereo not drawn) [Compound 133, 4-(6-acetyl-7-amino-3-(6-phenylpyridin-3-yl)pyrazolo[1,5-a]pyrimidin-5-yl)-1-(hydroxymethyl)cyclohexanecarboxylic acid] |
| 1 to 100 | 100 to 1000 | 100 to 1000 |  |  | CO[C@]1(C(=O)O)CC[C@@H](c2nc3c(-c4cnn(-c5ccccc5)c4)cnn3c(N)c2Br)CC1 [Compound 30, (1R,4R)-4-(7-amino-6-bromo-3-(1-phenyl-1H-pyrazol-4-yl)pyrazolo[1,5-a]pyrimidin-5-yl)-1-methoxycyclohexane-carboxylic acid] |
| 1 to 100 | 100 to 1000 | 100 to 1000 |  |  | COCCO[C@]1(C(=N)N)CC[C@@H](c2nc3c(-c4cnn(-c5ccccc5)c4)cnn3c(N)c2S(C)(=O)=O)CC1 [Compound 120, (1R,4R)-4-(7-amino-6-(methylsulfonyl)-3-(1-phenyl-1H-pyrazol-4-yl)pyrazolo[1,5-a]pyrimidin-5-yl)-1-(2-methoxyethoxy)cyclohexanecarboximidamide] |
| 1 to 100 | 1 to 100 | 1 to 100 |  |  | COCCO[C@]1(C(N)=O)CC[C@@H](c2nc3c(-c4ccc(-c5ncc[nH]5)nc4)cnn3c(N)c2C(C)=O)CC1 [Compound 112, (1R,4R)-4-(3-(6-(1H-imidazol-2-yl)pyridin-3-yl)-6-acetyl-7-aminopyrazolo[1,5-a]pyrimidin-5-yl)-1-(2-methoxyethoxy)cyclohexanecarboxamide] |
| 1 to 100 | 1 to 100 | 1 to 100 |  |  | COCCO[C@]1(C(N)=O)CC[C@@H](c2nc3c(-c4cnn(-c5ccccc5)c4)cnn3c(N)c2S(C)(=O)=O)CC1 [Compound 110, (1R,4R)-4-(7-amino-6-(methylsulfonyl)-3-(1-phenyl-1H-pyrazol-4-yl)pyrazolo[1,5-a]pyrimidin-5-yl)-1-(2-methoxyethoxy)cyclohexanecarboxamide] |
| 1 to 100 | 100 to 1000 | 1000 to 2000 |  |  | COCCO[C@]1(C(=O)O)CC[C@@H](c2nc3c(-c4cnc(-c5ncc(C)s5)nc4)cnn3c(N)c2S(C)(=O)=O)CC1 [Compound 51, (1R,4R)-4-(7-amino-6-(methylsulfonyl)-3-(2-(5-methylthiazol-2-yl)pyrimidin-5-yl)pyrazolo[1,5-a]pyrimidin-5-yl)-1-(2-methoxyethoxy) cyclohexanecarboxylic acid] |
| 1 to 100 | 100 to 1000 | 100 to 1000 |  |  | COCCO[C@]1(C(=O)NS(C)(=O)=O)CC[C@@H](c2nc3c(-c4cnn(-c5ccccc5)c4)cnn3c(N)c2C(C)=O)CC1 [Compound 70, (1R,4R)-4-(6-acetyl-7-amino-3-(1-phenyl-1H-pyrazol-4-yl)pyrazolo[1,5-a]pyrimidin-5-yl)-1-(2-methoxyethoxy)-N-(methylsulfonyl)cyclohexanecarboxamide] |
| 1 to 100 | 100 to 1000 | 100 to 1000 |  |  | COCCO[C@]1(C(=O)N2CCC(=O)N2)CC[C@@H](c2nc3c(-c4cnn(-c5ccccc5)c4)cnn3c(N)c2S(C)(=O)=O)CC1 [Compound 95, 1-((1R,4R)-4-(7-amino-6-(methylsulfonyl)-3-(1-phenyl-1H-pyrazol-4-yl)pyrazolo[1,5-a]pyrimidin-5-yl)-1-(2-methoxyethoxy)cyclohexanecarbonyl)-pyrazolidin-3-one] |
| 1 to 100 | 2000 to 5000 | 5000 to 15000 |  |  | COCCO[C@]1(C(=O)O)CC[C@@H](c2nc3c(-c4ccc(-c5ccn(C)n5)nc4)cnn3c(N)c2S(C)(=O)=O)CC1 [Compound 42, (1R,4R)-4-(7-amino-3-(6-(1-methyl-1H-pyrazol-3-yl)pyridin-3-yl)-6-(methylsulfonyl)-pyrazolo[1,5-a]-pyrimidin-5-yl)-1-(2-methoxyethoxy)-cyclohexanecarboxylic acid] |
| 1 to 100 | 1 to 100 | 100 to 1000 |  |  | COCCO[C@]1(C(=O)NCCO)CC[C@@H](c2nc3c(-c4cnn(-c5ccccc5)c4)cnn3c(N)c2S(C)(=O)=O)CC1 [Compound 92, (1R,4R)-4-(7-amino-6-(methylsulfonyl)-3-(1-phenyl-1H-pyrazol-4-yl)pyrazolo[1,5-a]pyrimidin-5-yl)-N-(2-hydroxyethyl)-1-(2-methoxyethoxy)-cyclohexane-carboxamide] |
| 1 to 100 | 1 to 100 | 1 to 100 |  |  | COCCO[C@]1(C(=O)NO)CC[C@@H](c2nc3c(-c4ccc(-c5ccccc5)nc4)cnn3c(N)c2S(C)(=O)=O)CC1 [Compound 104, (1R,4R)-4-(7-amino-6-(methylsulfonyl)-3-(6-phenylpyridin-3-yl)pyrazolo[1,5-a]pyrimidin-5-yl)-N-hydroxy-1-(2-methoxyethoxy)-cyclohexane-carboxamide] |
| 1 to 100 | 100 to 1000 | 100 to 1000 |  |  | CC(=O)c1c(C2CCC(O)(CO)CC2)nc2c(-c3ccc(-c4nccs4)nc3)cnn2c1N (stereo not drawn) [Compound 156, 1-(7-amino-5-(4-hydroxy-4-(hydroxymethyl)-cyclohexyl)-3-(6-(thiazol-2-yl)pyridin-3-yl)pyrazolo[1,5-a]pyrimidin-6-yl)ethanone] |
| 1 to 100 | 1 to 100 | 1 to 100 |  |  | COCCO[C@]1(C(=O)c2nnc[nH]2)CC[C@@H](c2nc3c(-c4cnn(-c5ccccc5)c4)cnn3c(N)c2S(C)(=O)=O)CC1 [Compound 122, ((1R,4R)-4-(7-amino-6-(methylsulfonyl)-3-(1-phenyl-1H-pyrazol-4-yl)pyrazolo[1,5-a]pyrimidin-5-yl)-1-(2-methoxyethoxy)cyclohexyl)(4H-1,2,4-triazol-3-yl)methanone] |
| 1 to 100 |  |  | 1 to 100 | 100 to 1000 | C[C@]1(C(=O)O)CC[C@@H](c2nc3c(-c4ccc(-c5ccccc5)nc4)cnn3c(N)c2C#N)CC1 [Compound 26, (1S,4S)-4-(7-amino-6-cyano-3-(6-phenylpyridin-3-yl)pyrazolo[1,5-a]pyrimidin-5-yl)-1-methylcyclohexanecarboxylic acid] |
